Test results from patent US20260158070A1, “COMPOSITIONS AND METHODS FOR THE TREATMENT AND DIAGNOSIS OF CANCERS ASSOCIATED WITH SURFACE K-RAS” (UNIVERSITY OF MARYLAND, BALTIMORE, priority 2023, published 2026).

Assays:
[1] = test system: PANC-1 cells; test: Surface K-Ras availability after drug treatment (antibody 1 staining, MFI fold change); format: cell-based, human
Procedure: For 5-FU treatment, 100,000 PANC-1 cells were seeded into 24 well replicate plates. Cells were allowed to grow for 24 hours before 10 uM of 5-FU was added to the culture media. At 0-, 72-, and 120-hours cells were dislodged by using TryPLE express and resuspended in buffer containing PBS pH 7.2, 5% FCS. Cells were stained with human K-Ras antibody 1. All staining was performed at 10 μg/ml of antibody concentration and a volume of 100ul for 30 minutes on ice in V-bottom 96 well plates. Surface K-Ras staining was quantitated by measuring the MFI of cells mock treated or treated with 5-FU. The fold change was calculated by normalizing to the cells stained with isotype control.

[2] = test system: Panc-1 (K-Ras G12D mutant); test: Growth and viability of pancreatic cancer cells cultured with R11.1.6 constructs (cell count, Trypan blue); format: cell-based, human; settings: Panc-1, 20,000 cells/well, counted after 5 days of culture
Procedure: We next evaluated growth as well as viability of two pancreatic cancer cell lines driven by either G12D (Panc-1) or G12C (MiaPaca-2) mutant K-Ras in vitro. We plated 20,000 cells/well in Dulbecco's modified Eagles media (DMEM) with 10% fetal bovine serum (FBS) in a flat bottom 96 well plate and counted cells after 5 days of culture. Viability of cells were calculated based on Trypan blue dye exclusion method, where dead cells were blue due to uptake of the viability dye and live cells were not stained. Viability was measured by using Countess II FL cell viability and cell counter instrument by Invitrogen (ThermoFisher USA).
Further evaluation of growth inhibition was performed with control Sulfolobus solfataricus-derived proteins of similar molecular weight. […] We started with 200,000 cells in a 96 well V-bottom plate and used BD phosflow buffer set III (BD biosciences, catalog number 558050) to stabilize and optimize the phosphor moiety. Next, we stained the cells with anti-phospho-Akt (ser473, Clone D9E) PE conjugated (Cell Signaling Technologies, Catalog number 5315S) at a concentration of 0.125 ug/100 ul or anti-phosho-ERK1/2, PE conjugated (ThermoFisher USA catalog number 12-9109-42) at a concentration of 0.125 ug/100 ul. Cells were washed in FACS staining buffer and run in a LSR Fortessa II flow cytometer (BD Biosciences, USA). […]

[3] = test system: PANC-1 cells; test: Human Fab-ZAP assay with MRTX1133 treatment (XTT); format: cell-based; settings: 10 nM MRTX1133, 4.5 nM FabZAP, 5 days
Description: In this example, we used the commercially available human Fab-ZAP assay (Advanced Targeting Systems Inc.), similar to Example 3, to test whether increasing surface K-Ras availability with MRTX1133 would potentiate killing with surface K-Ras targeted ADCs. For the experiments described below, we utilized the Fab-ZAP human kit [IT-51, KIT-51](atsbio.com/products/it51/), consisting of a chemical conjugate of goat […] monovalent antibody and the ribosome-inactivating protein, saporin. The antibodies used in this kit are affinity-purified polyclonal antibodies against both the heavy and light chain of […].
In one experiment, we tested whether increasing surface K-Ras availability with the small molecule inhibitor MRTX1133 would potentiate killing with surface K-Ras targeted ADCs. […] After 5 days incubation at 37 C in a 5% CO2 incubator, the percentage of viable cells compared to control wells with 4.5 nM FabZAP alone was determined using XTT assay according to the described protocol (Advanced Targeting Systems Inc cytotoxic assay protocol). […] Plates were then incubated at 37 C for at least 30 mins, and absorbance was read at 450 nm in a plate reader. This assay relies on detecting the number of viable cells remaining on the day of development as measured via cell metabolism of a colorimetric molecule within the developing reagents. […]

[4] = test system: human tumor cell line PANC-1; test: Cell line-derived xenograft model of pancreatic cancer, in vivo ADC experiment; parameters: species or system Balb/c nude mice; settings: 10 mg/kg i.v. QW × 2 weeks; gemcitabine 50 mg/kg i.p. BIW × 2 weeks
Procedure: DXd is a protease cleavable linker attached to a derivative of exatecan that acts as topoisomerase I inhibitor. DXd targeted to cancer cells by antibodies as an ADC has been used by FDA-approved […] is a conjugation of anti-Her-2 antibody and deruxtecan. DXd was conjugated via stochastic maleimide conjugation to interchain cysteines of the antibodies. The antibodies were first reduced using 10× molar equivalents of 10 mM TCEP at 37° C. for 90 minutes with shaking. The reduced antibodies were then conjugated with 10× molar equivalents of 10 mM DXd at room temperature for 2 hours. Conjugated antibodies were evaluated for the drug to antibody ratio (DAR) by reducing 10 μg of the crude conjugate with DTT at 37° C. for 30 minutes. The final DAR for the conjugated antibodies was 8. The multimeric state of the conjugated antibodies was evaluated by size exclusion chromatography and confirmed to be monomeric. Conjugated antibodies were purified from unconjugated DXd by dialysis against PBS, pH 5.6 with a 10K molecular-weight cut-off (MWCO) membrane for 48 hours. Next, we utilized a cell line-derived xenograft model of pancreatic cancer, where the human tumor cell line PANC-1 was implanted into Balb/c nude mice. The nude mouse is a naturally mutated mouse that lacks a thymus and hair (nude). […]

[5] = test system: Panc-1 (pancreatic carcinoma carrying a K-RAS G12D mutation); test: Fab-ZAP assay (saporin-linked secondary antibody, XTT); format: cell-based, human; settings: 4.5 nM FabZAP, 5 days
Description: (§1) Saporin is a 30 kDa ribosome-inhibitor which is unable to cross a cell membrane unaided (except at extremely high concentrations). However, when it is conjugated to an internalizing antibody, as previously described (DOI: 10.3390/toxins14030184), it can be used to kill target cells precisely and specifically with little to no off-target toxicity (See, for example, Lund et. al., mAbs, 6(4), 1038-1050, doi.org/10.4161/mabs.28207). […]
(§2) We specifically utilized Panc-1 (pancreatic carcinoma carrying a K-RAS G12D mutation), Capan-2 (pancreatic carcinoma carrying a K-RAS G12V mutation), AsPC-1 (pancreatic cell line carrying a K-RAS G12D mutation), LS180 (colon cancer cell line carrying a K-RAS G12D mutation), SW480 (colon cancer cell lines carrying a K-RAS G12V mutation), Capan-2 (pancreatic cancer cell line carrying a K-RAS G12V mutation), and two lung cancer cell lines (SK-LU-1 carrying a K-RAS G12D mutation and NCI-H2444 carrying a K-RAS G12V mutation). […] After 5 days incubation at 37 C in a 5% CO2 incubator, the percentage of viable cells compared to control wells with 4.5 nM FabZAP alone was determined using XTT assay according to the described protocol (Advanced Targeting Systems Inc cytotoxic assay protocol). […] Plates were then incubated at 37° C. for a minimum of 30 mins and absorbance was read at 450 nm in a plate reader. […]

[6] = test system: AsPC-1 (pancreatic cell line carrying a K-RAS G12D mutation); test: as above; format: cell-based; settings: 4.5 nM FabZAP, 5 days
Description: as §1, §2

[7] = test system: MiaPaCa-2, a K-Ras G12C expressing pancreatic cancer cell line; test: as above; format: cell-based; settings: 4.5 nM FabZAP, 5 days
[8] = test system: BXPC3 K-Ras^WT; test: as above; format: cell-based; settings: 4.5 nM FabZAP, 5 days
[9] = test system: tumor cell; test: Tumor cell killing by saporin alone without targeting antibodies (FIG. 3); format: cell-based
Procedure: FIG. 3 is a graphical representation of tumor cell killing, defined as % of cells alive compared to untreated control cultures with various concentrations of saporin alone without targeting antibodies. Representative of 3 replicates per group. Arrow points to 4.5 nM saporin. This 4.5 nM concentration, conjugated to the secondary antibody, is utilized in the antibody-drug conjugate (ADC) assays described in Example 3.
as §2

With `O=c1[nH]cc(F)c(=O)[nH]1` [5-FU, fluorouracil] the “availability of surface K-Ras (MFI fold change)” value ([1]; 10 uM, 0, 72 and 120 hours) was “increased the availability of surface K-Ras in Panc-1 cells”.

`C#Cc1c(F)ccc2cc(O)cc(-c3ncc4c(N5CC6CCC(C5)N6)nc(OC[C@@]56CCCN5C[C@H](F)C6)nc4c3F)c12` [MRTX1133] was tested, and the growth and viability [2] was “R11.1.6-mediated inhibition of Panc-1 growth and viability was like the G12D inhibitor MRTX1133”, the “availability of surface K-Ras (MFI fold change)” value ([1]; 10 nM, 0, 72 and 120 hours) was “increased the availability of surface K-Ras on PANC-1 cells” and the “cell killing (% alive)” value [3] was “able to kill cells”.

`Nc1ccn([C@@H]2O[C@H](CO)[C@@H](O)C2(F)F)c(=O)n1` [gemcitabine, Gemcitabine] was tested, and the body weight [4] was “demonstrated distress based on weight loss” and the “tumor growth (tumor volume)” value [4] was “slowed tumor growth over either ADC or antibody treatment”.

For Saporin, the “cell-specific killing (% of cells alive)” value [5] was “showed killing”, the “cell-specific killing (% of cells alive)” value [6] was “showed killing” and the “cell-specific killing (% of cells alive)” value [7] was “showed killing”. The “cell-specific killing (% of cells alive)” value [8] was “showed killing”, the “toxicity of saporin without a targeting agent” value ([9]; 4.5 nM concentration used in the ADC assay) was “no toxicity is evident at the 4.5 nM concentration” and the “concentration of saporin alone causing cell death” value ([9]; without targeting antibodies) was at least 100 nM.
